Reference: ChEMBL document CHEMBL5096167, “Recent advances in development of hetero-bivalent kinase inhibitors” (Eur J Med Chem, 2021)
*1 amine or outer side, *2 acyl side, *3 side chain or, on linkers, in order; H or OH if unused. Where a SMILES comes first, the peptide text is derived from it. The star is where a group is joined. X1 = Brc1c(Br)c(Br)c2[nH]c(NCCCN*)nc2c1Br; Suc = O=C(CCC(=O)[*:2])[*:1]

Experiments:
[1] = molecular target: cAMP-dependent protein kinase catalytic subunit alpha (Homo sapiens, UniProt P17612); assay: Displacement of mAb(D38C6)-BTN from human recombinant PKAc alpha incubated for 15 mins by microplate reader assay
Casein kinase 2 = Casein kinase 2 (Homo sapiens, UniProt P67870+P68400+P19784+Q8NEV1); assay: Inhibition of human CK2; format: protein assay
[2] = molecular target: Proto-oncogene tyrosine-protein kinase Src (Homo sapiens, UniProt P12931); assay: Inhibition of c-Src (unknown origin)
Sequence of Proto-oncogene tyrosine-protein kinase Src (P12931 2-536 limits assumed): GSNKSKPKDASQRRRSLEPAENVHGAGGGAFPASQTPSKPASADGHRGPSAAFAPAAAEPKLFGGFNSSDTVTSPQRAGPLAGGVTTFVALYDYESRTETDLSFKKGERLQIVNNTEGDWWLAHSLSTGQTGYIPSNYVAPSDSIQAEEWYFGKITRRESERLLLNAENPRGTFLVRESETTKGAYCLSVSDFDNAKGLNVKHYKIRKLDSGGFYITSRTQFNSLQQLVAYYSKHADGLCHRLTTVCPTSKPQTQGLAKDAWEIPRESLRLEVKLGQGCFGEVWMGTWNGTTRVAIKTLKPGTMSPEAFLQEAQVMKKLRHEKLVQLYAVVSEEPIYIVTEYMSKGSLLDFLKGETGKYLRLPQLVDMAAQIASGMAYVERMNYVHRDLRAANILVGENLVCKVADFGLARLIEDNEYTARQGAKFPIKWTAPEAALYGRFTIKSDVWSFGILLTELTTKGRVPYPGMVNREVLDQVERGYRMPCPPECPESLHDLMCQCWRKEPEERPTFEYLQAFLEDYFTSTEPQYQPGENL

[3] = molecular target: T1, Serine/threonine-protein kinase haspin (Homo sapiens, UniProt Q8TF76)
T1 sequence (Q8TF76 whole entry): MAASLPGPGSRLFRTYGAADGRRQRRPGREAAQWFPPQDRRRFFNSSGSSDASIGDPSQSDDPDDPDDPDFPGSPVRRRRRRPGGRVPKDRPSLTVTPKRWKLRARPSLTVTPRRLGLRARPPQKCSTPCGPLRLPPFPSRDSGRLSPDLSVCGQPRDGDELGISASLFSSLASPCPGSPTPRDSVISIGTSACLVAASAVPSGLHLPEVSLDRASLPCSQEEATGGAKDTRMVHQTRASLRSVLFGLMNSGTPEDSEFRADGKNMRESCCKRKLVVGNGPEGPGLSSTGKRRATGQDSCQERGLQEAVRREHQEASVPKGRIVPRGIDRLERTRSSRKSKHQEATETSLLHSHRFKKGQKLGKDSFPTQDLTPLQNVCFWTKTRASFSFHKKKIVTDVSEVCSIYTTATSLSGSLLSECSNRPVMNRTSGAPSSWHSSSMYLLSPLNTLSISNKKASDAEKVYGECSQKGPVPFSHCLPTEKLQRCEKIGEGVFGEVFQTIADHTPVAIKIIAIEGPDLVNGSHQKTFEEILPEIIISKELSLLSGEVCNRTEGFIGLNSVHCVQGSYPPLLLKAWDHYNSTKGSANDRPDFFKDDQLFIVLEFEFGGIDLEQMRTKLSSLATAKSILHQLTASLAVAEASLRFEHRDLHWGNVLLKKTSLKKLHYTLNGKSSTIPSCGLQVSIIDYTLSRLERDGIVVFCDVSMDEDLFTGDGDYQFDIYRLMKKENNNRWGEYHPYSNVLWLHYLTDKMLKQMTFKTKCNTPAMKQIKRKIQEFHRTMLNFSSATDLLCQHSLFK

[4] = Inhibition of CK2alpha2beta2 (unknown origin); design: species or system Homo sapiens
[5] = molecular target: T1, Serine/threonine-protein kinase haspin; remark: listed apart in the source
[6] = Binding affinity to full length human recombinant PKAc assessed as dissociation constant
[7] = molecular target: cAMP-dependent protein kinase catalytic subunit beta (Homo sapiens, UniProt P22694); assay: Binding affinity to human wild-type PKAc beta assessed as dissociation constant
[8] = Binding affinity to human PKAc beta-S54L mutant assessed as dissociation constant

| SMILES | Kd [5] | Kd [6] | Selectivity Index (Homo sapiens) | other results |
| --- | --- | --- | --- | --- |
| C[C@@H](NC(=O)CCCCCNC(=O)c1ccc(-c2ccnc(N)n2)[se]1)C(=O)N[C@H](CCCNC(=N)N)C(=O)N[C@H](CCCNC(=N)N)C(=O)N[C@H](CCCNC(=N)N)C(=O)N[C@H](CCCNC(=N)N)C(=O)N[C@H](CCCNC(=N)N)C(=O)N[C@H](CCCNC(=N)N)C(=O)N[C@H](CCCCN(C)c1ccc2c(-c3ccc(C(=O)[O-])cc3C(=O)O)c3ccc(=[N+](C)C)cc-3oc2c1)C(N)=O |  |  |  | Kd [1]: 0.042 nM |
| O=C(O)Cc1c(Br)c(Br)c(Br)c2[nH]nnc12 |  |  |  | IC50 (Casein kinase 2): 8000 nM |
| CC[C@H](C)[C@H](NC(=O)[C@H](CCC(=O)O)NC(=O)[C@H](CCC(=O)O)NC(=O)[C@H](Cc1ccc(P(=O)(O)O)cc1)NC(=O)[C@H](CCC(=O)O)NC(=O)COCC(=O)NCCOCCOCCOCCOCCOCCOCCOCCOCCn1cc(CCC(=O)N2CCN(c3cc(Nc4cc(C5CC5)[nH]n4)nc(C)n3)CC2)nn1)C(N)=O |  |  |  | IC50 [2]: 160 nM |
| Nc1ncnc2c1ncn2[C@@H]1O[C@H](C(=O)O)[C@@H](O)[C@H]1O [5'-CARBOXY ADENOSINE] |  |  |  | Kd [3]: > 15000 nM |
| O=C(O)CC[C@H](NC(=O)[C@H](CCC(=O)O)NC(=O)[C@H](CCC(=O)O)NC(=O)[C@H](CCC(=O)O)NC(=O)CCC(=O)NCCCNc1nc2c(Br)c(Br)c(Br)c(Br)c2[nH]1)C(=O)O ({X1-Suc}-EEEE-OH) |  |  |  | IC50 [4]: 25 nM |
| C[C@H](N)C(=O)N[C@@H](CCCNC(=N)N)C(=O)N[C@@H](CCCCNC(=O)C[C@@H](NC(=O)CCCCCNC(=O)[C@H]1O[C@@H](n2cnc3c(N)ncnc32)[C@H](O)[C@@H]1O)C(=O)O)C(=O)N[C@@H](CCCCN)C(=O)N[C@@H](CCC(N)=O)C(=O)N[C@H](C(=O)N[C@@H](C)C(N)=O)[C@@H](C)O | 150 nM | 7700 nM | 50 |  |
| C[C@H](N)C(=O)N[C@@H](CCCNC(=N)N)C(=O)N[C@@H](CCCCNC(=O)C[C@@H](NC(=O)CCCCCNC(=O)[C@H]1O[C@@H](n2cnc3c(N)ncnc32)[C@H](O)[C@@H]1O)C(N)=O)C(=O)N[C@@H](CCCCN)C(=O)N[C@@H](CCC(=O)O)C(=O)N[C@H](C(=O)N[C@@H](C)C(N)=O)[C@H](C)O | 170 nM | 1600 nM | 9 |  |
| N=C(N)NCCCC(NC(=O)CCCCCNC(=O)C(Cc1c[nH]c2ccccc12)NC(=O)CCCCCNC(=O)c1ccc(-c2ccnc(N)n2)[se]1)C(=O)NC(CCCNC(=N)N)C(=O)NC(CCCNC(=N)N)C(=O)NC(CCCNC(=N)N)C(=O)NC(CCCNC(=N)N)C(=O)NC(CCCNC(=N)N)C(=O)NC(CCCCN)C(N)=O (configuration not stated) |  |  |  | Kd [7]: 0.013 nM; Kd [8]: 0.019 nM |
| C[C@H](N)C(=O)N[C@@H](CCCNC(=N)N)C(=O)N[C@@H](CCCCNC(=O)C[C@@H](NC(=O)CCCCCNC(=O)[C@H]1O[C@@H](n2cnc3c(N)ncnc32)[C@H](O)[C@@H]1O)C(N)=O)C(=O)N[C@@H](CCCCN)C(=O)N[C@@H](CCC(N)=O)C(=O)N[C@H](C(=O)N[C@@H](C)C(=O)N[C@@H](CCCNC(=N)N)C(=O)N[C@@H](CCCNC(=N)N)C(=O)N[C@@H](CCCNC(=N)N)C(=O)N[C@@H](CCCNC(=N)N)C(=O)N[C@@H](CCCNC(=N)N)C(=O)N[C@@H](CCCNC(=N)N)C(N)=O)[C@H](C)O | 0.42 nM | 38 nM | 90 |  |
| C#CCCC(=O)N1CCN(c2cc(Nc3cc(C4CC4)[nH]n3)nc(C)n2)CC1 |  |  |  | IC50 [2]: 2900 nM |
